- solubility in water: 0.1 % by weight
SMILES: CCCCC(CC)COCC(O)CO (stereo not shown) [1-(2-ethylhexyl)glycerol ether, 1-(2-Ethylhexyl)-glycerol ether]

Source: patent US20110237626A1, “COMPOSITIONS FOR HYGIENIC HAND DISINFECTION AND DISINFECTANT HANDWASHING” (AIR LIQUIDE SANTE (INTERNATIONAL), priority 2005, published 2011)
